Test results taken from patent publication US20140322076A1, “ANTIMICROBIAL COMPOSITION” (priority 2011, published 2014).

Tested on: Escherichia coli (E. coli - ATCC #10536)
Assay: Automated assessment of efficacy in surfactant base (Example 4)
Format: cell-based
Conditions: 15 seconds exposure; for DeltaOD (450 nm) Mean: OD450 (16 hours) − OD450 (time zero), 2.85% sodium cocoyl glycinate + 1.85% sodium lauroamphoacetate; for DeltaOD (450 nm) Mean / DeltaOD (590 nm) Mean: pH 10; for DeltaOD (590 nm) Mean: OD590 (16 hours) − OD590 (time zero), same surfactant solution; for Nrep = No. of replicates showing growth (out of 4): surfactant solution pH 10
Experimental: In these examples, the efficacy of combinations of isopropylmethylphenols and terpineol were tested in a surfactant cleansing formulation comprising 2.85% sodium cocoyl glycinate and 1.85% sodium lauroamphoacetate. This corresponds to a 50% in use dilution with water of a typical neat formulation containing 5.7% cocoyl glycinate and 3.7% % sodium lauroamphoacetate during hand washing. Solutions were prepared such that the concentrations of the surfactant components and test actives were 1.1 times the final desired concentration in order to allow for dilution with the bacterial inoculum in the test. The solutions were manually adjusted to pH 10.0 by dropwise addition of sodium hydroxide solution, as measured with a pH meter at ambient temperature. Solutions of the isopropylmethylphenols and/or terpineols were prepared at a maximum of 24 hours before testing. The same terpineol was used as in Example 1.
The efficacy of the combinations of the present invention was determined against the same bacterium as in Example 1, Escherichia coli (E. coli—ATCC #10536), at a concentration of approximately 1×10^8 bacteria per mL.
Tests were conducted using standard microtiter plate assays using an automated liquid handling system. 270 μl of the surfactant test solution was pipetted into each well of the microtitre plate (Nunc F Gamma Irradiated 96F untreated microtitre plates of clear polystyrene) and 30 μl of the bacterial suspension was then added. After exactly 15 seconds of bacterial exposure, a 30 μl volume of bacterial cells was withdrawn and transferred to 270 μl of D/E quench solution. After 5 minutes in the D/E quench, the optical density (OD) was measured for each plate in turn at two specific wavelengths (450 nm and 590 nm). These provide a dual check of antimicrobial activity, as the OD450 reading is specific for the yellow colour of D/E quench when bacterial growth is observed, whereas OD590 is specific for the initial purple colour of the D/E quench which is retained if no bacterial growth is observed. After the time zero OD measurements, plates were then incubated at 37° C. overnight (16 hours) before repeating the OD measurements. Delta OD values were calculated by subtracting […] at time=16 hours.
Bacterial growth is observed as an increase in OD450 and a decrease in OD590. To identify antibacterially efficacious systems (those preventing appreciable bacterial growth after incubation), the following threshold changes in OD readings have been adopted: if (1). OD450 increases by less than 0.2 absorbance unit (AU) on incubation and (2). OD590 decreases by less than 0.35 AU on incubation. Conversely, where OD450 increases by more than 0.1 AU and OD590 decreases by more than 0.1 AU after incubation, corresponding to a colour shift from purple to yellow, the test system allows bacterial growth and is not deemed efficacious. Four replicate measurements in the same plate have been made for each test system. The number of replicate wells showing either bacterial growth or no growth is also readily assessed by eye by following the colour change. Thymol and terpineol were tested both alone and in combination for comparison purposes.
In each case, binary mixtures were assessed in the weight to weight ratio isopropylmethylphenol to alpha terpineol of 1:2.5.

Question: Which results are given for Cc1ccc(C(C)C)c(O)c1 [4:2, thymol]?
Answer: DeltaOD (450 nm) Mean: −0.54; DeltaOD (590 nm) Mean: 0.64; Nrep = No. of replicates showing growth (out of 4): 4

Question: Which results are given for Cc1ccc(C(C)C)c(O)c1 [4:3, thymol]?
Answer: DeltaOD (450 nm) Mean: −0.54; DeltaOD (590 nm) Mean: 0.56; Nrep = No. of replicates showing growth (out of 4): 4

Question: For Cc1ccc(C(C)C)c(O)c1 [4:4, thymol], which “DeltaOD (450 nm) Mean” value is on record?
Answer: Its value is −0.57.

Question: What about the “DeltaOD (590 nm) Mean” value of the same compound?
Answer: The value was 0.55.

Question: And the “Nrep = No. of replicates showing growth (out of 4)” value?
Answer: Its value is 4.

Question: With Cc1ccc(C(C)C)c(O)c1 [4:5, thymol] as the compound, how does the “DeltaOD (450 nm) Mean” value read?
Answer: The value was −0.58.

Question: And the “DeltaOD (590 nm) Mean” value?
Answer: The value was 0.55.

Question: What about the “Nrep = No. of replicates showing growth (out of 4)” value of the same compound?
Answer: The value was 4.

Question: With Cc1ccc(C(C)C)c(O)c1 [4:6, thymol] as the compound, how does the “DeltaOD (450 nm) Mean” value read?
Answer: Its value is −0.58.

Question: What about the “DeltaOD (590 nm) Mean” value of the same compound?
Answer: The value was 0.54.

Question: And the “Nrep = No. of replicates showing growth (out of 4)” value?
Answer: The value was 4.

Question: For Cc1ccc(C(C)C)c(O)c1 [4:7, thymol], which “DeltaOD (450 nm) Mean” value is on record?
Answer: The value was −0.59.

Question: And the “DeltaOD (590 nm) Mean” value?
Answer: Its value is 0.54.

Question: And the “Nrep = No. of replicates showing growth (out of 4)” value?
Answer: The value was 4.

Question: How did the “DeltaOD (450 nm) Mean” value turn out when Cc1ccc(C(C)C)c(O)c1 [4:8, thymol] was run?
Answer: The value was −0.58.

Question: What about the “DeltaOD (590 nm) Mean” value of the same compound?
Answer: Its value is 0.55.

Question: What about the “Nrep = No. of replicates showing growth (out of 4)” value of the same compound?
Answer: Its value is 4.

Question: What does the source list for Cc1ccc(C(C)C)c(O)c1 [4:9, thymol]?
Answer: DeltaOD (450 nm) Mean: −0.55; DeltaOD (590 nm) Mean: 0.65; Nrep = No. of replicates showing growth (out of 4): 4

Question: What does the source list for CC1=CCC(O)(C(C)C)CC1 (stereo not drawn) [4:10, terpineol]?
Answer: DeltaOD (450 nm) Mean: −0.45; DeltaOD (590 nm) Mean: 0.64; Nrep = No. of replicates showing growth (out of 4): 4

Question: Which results are given for CC1=CCC(O)(C(C)C)CC1 (stereo not drawn) [4:11, terpineol]?
Answer: DeltaOD (450 nm) Mean: −0.47; DeltaOD (590 nm) Mean: 0.59; Nrep = No. of replicates showing growth (out of 4): 4

Question: For CC1=CCC(O)(C(C)C)CC1 (stereo not drawn) [4:12, terpineol], which “DeltaOD (450 nm) Mean” value is on record?
Answer: The value was −0.48.

Question: And the “DeltaOD (590 nm) Mean” value?
Answer: The value was 0.58.

Question: What about the “Nrep = No. of replicates showing growth (out of 4)” value of the same compound?
Answer: The value was 4.

Question: CC1=CCC(O)(C(C)C)CC1 (stereo not drawn) [4:13, terpineol] was tested. Which “DeltaOD (450 nm) Mean” value did it give?
Answer: The value was −0.51.

Question: What about the “DeltaOD (590 nm) Mean” value of the same compound?
Answer: The value was 0.57.

Question: What about the “Nrep = No. of replicates showing growth (out of 4)” value of the same compound?
Answer: The value was 4.

Question: Which “DeltaOD (450 nm) Mean” value does the source give for CC1=CCC(O)(C(C)C)CC1 (stereo not drawn) [4:14, terpineol] here?
Answer: Its value is −0.54.

Question: What about the “DeltaOD (590 nm) Mean” value of the same compound?
Answer: Its value is 0.56.

Question: What about the “Nrep = No. of replicates showing growth (out of 4)” value of the same compound?
Answer: Its value is 4.

Question: CC1=CCC(O)(C(C)C)CC1 (stereo not drawn) [4:15, terpineol] was tested. Which “DeltaOD (450 nm) Mean” value did it give?
Answer: The value was −0.56.

Question: And the “DeltaOD (590 nm) Mean” value?
Answer: The value was 0.55.

Question: And the “Nrep = No. of replicates showing growth (out of 4)” value?
Answer: The value was 4.

Question: What does the source list for CC1=CCC(O)(C(C)C)CC1 (stereo not drawn) [4:16, terpineol]?
Answer: DeltaOD (450 nm) Mean: −0.57; DeltaOD (590 nm) Mean: 0.55; Nrep = No. of replicates showing growth (out of 4): 4

Question: For CC1=CCC(O)(C(C)C)CC1 (stereo not drawn) [4:17, terpineol], which “DeltaOD (450 nm) Mean” value is on record?
Answer: The value was −0.53.

Question: And the “DeltaOD (590 nm) Mean” value?
Answer: The value was 0.67.

Question: What about the “Nrep = No. of replicates showing growth (out of 4)” value of the same compound?
Answer: The value was 4.

Question: How did the “DeltaOD (450 nm) Mean” value turn out when Cc1cc(O)cc(C(C)C)c1 [4:18, 3-isopropyl-5-methylphenol] was run?
Answer: Its value is −0.54.

Question: And the “DeltaOD (590 nm) Mean” value?
Answer: Its value is 0.63.

Question: What about the “Nrep = No. of replicates showing growth (out of 4)” value of the same compound?
Answer: Its value is 4.

Question: With Cc1cc(O)cc(C(C)C)c1 [4:19, 3-isopropyl-5-methylphenol] as the compound, how does the “DeltaOD (450 nm) Mean” value read?
Answer: The value was −0.53.

Question: What about the “DeltaOD (590 nm) Mean” value of the same compound?
Answer: The value was 0.58.

Question: And the “Nrep = No. of replicates showing growth (out of 4)” value?
Answer: Its value is 4.

Question: What does the source list for Cc1cc(O)cc(C(C)C)c1 [4:20, 3-isopropyl-5-methylphenol]?
Answer: DeltaOD (450 nm) Mean: −0.56; DeltaOD (590 nm) Mean: 0.57; Nrep = No. of replicates showing growth (out of 4): 4

Question: Which results are given for Cc1cc(O)cc(C(C)C)c1 [4:21, 3-isopropyl-5-methylphenol]?
Answer: DeltaOD (450 nm) Mean: −0.57; DeltaOD (590 nm) Mean: 0.56; Nrep = No. of replicates showing growth (out of 4): 4

Question: How did the “DeltaOD (450 nm) Mean” value turn out when Cc1cc(O)ccc1C(C)C [4:26, 4-isopropyl-3-methylphenol] was run?
Answer: The value was −0.46.

Question: What about the “DeltaOD (590 nm) Mean” value of the same compound?
Answer: Its value is 0.67.

Question: What about the “Nrep = No. of replicates showing growth (out of 4)” value of the same compound?
Answer: The value was 4.

Question: With Cc1cc(O)ccc1C(C)C [4:27, 4-isopropyl-3-methylphenol] as the compound, how does the “DeltaOD (450 nm) Mean” value read?
Answer: Its value is −0.48.

Question: What about the “DeltaOD (590 nm) Mean” value of the same compound?
Answer: The value was 0.58.

Question: And the “Nrep = No. of replicates showing growth (out of 4)” value?
Answer: The value was 4.
